Here are results for one compound from patent publication US7897587B2, “Topical dermatological formulations and use thereof” (Nycomed US Inc., priority 2004, dated 2011).

This data set in a line: Solubility of fluticasone propionate in propylene glycol, propylene carbonate and mixtures thereof. Type of data set: physicochemical. The conditions noted are these: 25° C. As to the method:
In the drawing FIGURE this solubility data obtained at 25° C. is plotted as the dark line and the idealized (theoretical) solubility is plotted as the light line. In “ideal” solutions, the effect of each component is additive in a linear fashion. If solvent A has a property with a value of 50 and solvent B a value of 100 for the same property, an equal blend of A and B would be expected to give a value of 75 for that property. […] The lightly colored line represents “ideal” linear behavior. Since propylene glycol can solubilize about 10 times more drug than propylene carbonate, the “ideal” line slopes down strongly as we move from pure propylene glycol to pure propylene carbonate. […] Two important observations can be made.

Take `CCC(=O)O[C@]1(C(=O)SCF)[C@H](C)C[C@H]2[C@@H]3C[C@H](F)C4=CC(=O)C=C[C@]4(C)[C@@]3(F)[C@@H](O)C[C@@]21C` [Fluticasone propionate, 6α,9α-difluoro-17α(1-oxopropoxy)-11β-hydroxy-16α-methyl-3-oxo-androsta-1,4-diene-17β-carbothioic acid S-fluoromethyl ester]: the Fluticasone propionate solubility is reported as 1.17 % w/w (% propylene glycol/% propylene carbonate 0/100); 1.72 % w/w (% propylene glycol/% propylene carbonate 12.5/87.5); 1.56 % w/w (% propylene glycol/% propylene carbonate 25/75); 1.09 % w/w (% propylene glycol/% propylene carbonate 50/50); 0.48 % w/w (% propylene glycol/% propylene carbonate 75/25); 0.08 % w/w (% propylene glycol/% propylene carbonate 100/0). Besides, the “Measured solubility compared with ideal (linear, theoretical) solubility” value (all propylene glycol/propylene carbonate mixtures) is on record as “the measured solubility exceeds the ideal solubility”. Moreover, the “Measured solubility in blends compared with solubility in single solvent” value (blends containing about 99 to 45% propylene carbonate) was “the measured solubility exceeds the solubility in propylene glycol”. For the same compound, the “Drug solubilized by propylene glycol relative to propylene carbonate” value (pure solvents) was “about 10 times”.
